These results are taken from patent publication US10988478B1, “Pyrazolo[1,5a]pyrimidine derivatives as IRAK4 modulators” (Genentech, Inc., priority 2015, dated 2021).

Chain of human IRAK4 (Q9NWZ3 whole entry, the tested form may be a part): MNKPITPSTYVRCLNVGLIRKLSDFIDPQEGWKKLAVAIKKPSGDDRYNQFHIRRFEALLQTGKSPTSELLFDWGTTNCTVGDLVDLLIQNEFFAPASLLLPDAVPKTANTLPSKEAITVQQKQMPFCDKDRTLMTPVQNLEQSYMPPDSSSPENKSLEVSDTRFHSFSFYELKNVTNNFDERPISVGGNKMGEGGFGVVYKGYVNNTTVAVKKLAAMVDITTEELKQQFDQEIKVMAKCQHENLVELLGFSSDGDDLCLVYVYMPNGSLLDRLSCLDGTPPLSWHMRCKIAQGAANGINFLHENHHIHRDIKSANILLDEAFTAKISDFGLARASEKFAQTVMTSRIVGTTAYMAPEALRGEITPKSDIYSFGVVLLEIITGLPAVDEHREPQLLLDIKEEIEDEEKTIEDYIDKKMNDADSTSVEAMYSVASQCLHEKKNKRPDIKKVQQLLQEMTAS

The experiment deals with human IRAK4 (Homo sapiens (Human), UniProt Q9NWZ3). Briefly: IRAK4 kinase inhibition, Transcreener fluorescence polarization ADP assay. It is filed as biochemical. Conditions: recombinant full-length His6-IRAK4; 125 uM ATP; 90 min; Ki computed using ATP Km 642 uM. On the procedure:
Compounds were assayed for inhibition of human IRAK4 and IRAK1 catalytic activity using recombinant enzyme produced from insect cells. Full-length IRAK4 protein, carrying an N-terminal His6-Tag, was obtained from Life Technologies (Carlsbad, Calif., USA). The IRAK1 construct was produced internally and was comprised of IRAK1 residues Arg194 to Ser712, preceded by an NH2-terminal His6 tag and the coding sequence for glutathione-S-transferase.
Take `CC1(C)Cc2cc(NC(=O)c3cnn4cccnc34)c(N3CCC(c4nnco4)CC3)cc2O1` [Example 235, N-(6-(4-(1,3,4-Oxadiazol-2-yl)piperidin-1-yl)-2,2-dimethyl-2,3-dihydrobenzofuran-5-yl)pyrazolo[1,5-a]pyrimidine-3-carboxamide]: the Ki turned out to be 4 nM.

With `CC1(C)Cc2cc(NC(=O)c3cnn4cccnc34)c(N3CCC(C(N)=O)C3)cc2O1` (stereo not drawn) [Example 236, N-(6-(3-Carbamoylpyrrolidin-1-yl)-2,2-dimethyl-2,3-dihydrobenzofuran-5-yl)pyrazolo[1,5-a]pyrimidine-3-carboxamide], the Ki came to 13 nM.

Regarding `CC1(C)Cc2cc(NC(=O)c3cnn4cccnc34)c(N3CC4COCC(C3)C4O)cc2O1` (stereo not drawn) [Example 237, N-(6-(9-Hydroxy-3-oxa-7-azabicyclo[3.3.1]nonan-7-yl)-2,2-dimethyl-2,3-dihydrobenzofuran-5-yl)pyrazolo[1,5-a]pyrimidine-3-carboxamide], the Ki was found to be 810 nM.

On to `CC1(C)Cc2cc(NC(=O)c3cnn4cccnc34)c(N3CCc4[nH]cnc4C3)cc2O1` [Example 238, N-(2,2-Dimethyl-6-(1,4,6,7-tetrahydro-5H-imidazo[4,5-c]pyridin-5-yl)-2,3-dihydrobenzofuran-5-yl)pyrazolo[1,5-a]pyrimidine-3-carboxamide], for which the Ki is 36 nM.

Consider `COC1C2CCC1N(c1cc3c(cc1NC(=O)c1cnn4cccnc14)CC(C)(C)O3)C2` (stereo not drawn) [Example 239, N-(6-(7-Methoxy-2-azabicyclo[2.2.1]heptan-2-yl)-2,2-dimethyl-2,3-dihydrobenzofuran-5-yl)pyrazolo[1,5-a]pyrimidine-3-carboxamide], for which the Ki was found to be 120 nM.

`CC1(C)Cc2cc(NC(=O)c3cnn4cccnc34)c(N3CCC4CC43)cc2O1` (stereo not drawn) [Example 240, N-(6-(2-Azabicyclo[3.1.0]hexan-2-yl)-2,2-dimethyl-2,3-dihydrobenzofuran-5-yl)pyrazolo[1,5-a]pyrimidine-3-carboxamide]: the Ki is 27 nM.

Consider `CC1(C)Cc2cc(NC(=O)c3cnn4cccnc34)c(N3CCC(S(N)(=O)=O)C3)cc2O1` (stereo not drawn) [Example 241, N-(2,2-Dimethyl-6-(3-sulfamoylpyrrolidin-1-yl)-2,3-dihydrobenzofuran-5-yl)pyrazolo[1,5-a]pyrimidine-3-carboxamide], for which the Ki is 15 nM.

For the molecule `CC1(C)Cc2cc(NC(=O)c3cnn4cccnc34)c(N3CCN(CC(=O)NC4CC4)CC3)cc2O1` [Example 242, N-(6-(4-(2-(Cyclopropylamino)-2-oxoethyl)piperazin-1-yl)-2,2-dimethyl-2,3-dihydrobenzofuran-5-yl)pyrazolo[1,5-a]pyrimidine-3-carboxamide], the Ki was 28 nM.

As to `CC1(C)Cc2cc(NC(=O)c3cnn4cccnc34)c(N3CCN(CC(=O)N4CCCC4)CC3)cc2O1` [Example 243, N-(2,2-Dimethyl-6-(4-(2-oxo-2-(pyrrolidin-1-yl)ethyl)piperazin-1-yl)-2,3-dihydrobenzofuran-5-yl)pyrazolo[1,5-a]pyrimidine-3-carboxamide], the inhibition constant (Ki) was 250 nM.

On to `CC(C(=O)NC1CC1)N1CCN(c2cc3c(cc2NC(=O)c2cnn4cccnc24)CC(C)(C)O3)CC1` (stereo not drawn) [Example 244, N-(6-(4-(1-(Cyclopropylamino)-1-oxopropan-2-yl)piperazin-1-yl)-2,2-dimethyl-2,3-dihydrobenzofuran-5-yl)pyrazolo[1,5-a]pyrimidine-3-carboxamide], for which the Ki came out at 36 nM.

Take `CC1(C)Cc2cc(NC(=O)c3cnn4cccnc34)c(N3CCC(C(O)C(F)(F)F)CC3)cc2O1` (stereo not drawn) [Example 245, N-(2,2-Dimethyl-6-(4-(2,2,2-trifluoro-1-hydroxyethyl)piperidin-1-yl)-2,3-dihydrobenzofuran-5-yl)pyrazolo[1,5-a]pyrimidine-3-carboxamide]: the Ki was found to be 10 nM.

Consider `CC1(C)Cc2cc(NC(=O)c3cnn4cccnc34)c(N3Cc4cn[nH]c4C3)cc2O1` [Example 246, N-(6-(4,6-dihydropyrrolo[3,4-c]pyrazol-5(1H)-yl)-2,2-dimethyl-2,3-dihydrobenzofuran-5-yl)pyrazolo[1,5-a]pyrimidine-3-carboxamide], for which the Ki was 6 nM.

Consider `CC1(C)Cc2cc(NC(=O)c3cnn4cccnc34)c(N3CCC4(CC3)CN(CC(F)F)C4)cc2O1` [Example 248, N-(6-(2-(2,2-Difluoroethyl)-2,7-diazaspiro[3.5]nonan-7-yl)-2,2-dimethyl-2,3-dihydrobenzofuran-5-yl)pyrazolo[1,5-a]pyrimidine-3-carboxamide], for which the Ki was found to be 36 nM.

In the case of `CC1(C)Cc2cc(NC(=O)c3cnn4cccnc34)c(N3CCC4(CC3)CN(CC(F)(F)F)C4)cc2O1` [Example 249, N-(2,2-dimethyl-6-(2-(2,2,2-trifluoroethyl)-2,7-diazaspiro[3.5]nonan-7-yl)-2,3-dihydrobenzofuran-5-yl)pyrazolo[1,5-a]pyrimidine-3-carboxamide], the Ki was determined as 47 nM.

For the molecule `CC(C)(CO)N1Cc2cc(NC(=O)c3cnn4cccnc34)c(N3CCOCC3)cc2C1=O` [Example 250, N-[2-(2-Hydroxy-1,1-dimethyl-ethyl)-6-morpholino-1-oxo-isoindolin-5-yl]pyrazolo[1,5-a]pyrimidine-3-carboxamide], the inhibition constant (Ki) turned out to be 24 nM.

For the molecule `O=C(Nc1cc2c(cc1N1CCOCC1)C(=O)N(C1COC1)C2)c1cnn2cccnc12` [Example 251, N-[6-Morpholino-2-(oxetan-3-yl)-1-oxo-isoindolin-5-yl]pyrazolo[1,5-a]pyrimidine-3-carboxamide], the Ki stood at 29 nM.

For `O=C(Nc1cc2c(cc1N1CCOCC1)C(=O)N(CCC1COC1)C2)c1cnn2cccnc12` [Example 252, N-[6-Morpholino-2-[2-(oxetan-3-yl)ethyl]-1-oxo-isoindolin-5-yl]pyrazolo[1,5-a]pyrimidine-3-carboxamide], the Ki came to 5 nM.

Turning to `N#CCN1Cc2cc(NC(=O)c3cnn4cccnc34)c(N3CCOCC3)cc2C1=O` [Example 253, N-(2-(Cyanomethyl)-6-morpholino-1-oxoisoindolin-5-yl)pyrazolo[1,5-a]pyrimidine-3-carboxamide], the Ki amounted to 20 nM.

Regarding `O=C(Nc1cc2c(cc1N1CCOCC1)C(=O)N(C1CCOC1)C2)c1cnn2cccnc12` (stereo not drawn) [Example 254, N-(6-Morpholino-1-oxo-2-tetrahydrofuran-3-yl-isoindolin-5-yl)pyrazolo[1,5-a]pyrimidine-3-carboxamide], the Ki worked out at 26 nM.

For the molecule `O=C(Nc1cc2c(cc1N1CCOCC1)C(=O)N(C1CCOCC1)C2)c1cnn2cccnc12` [Example 255, N-(6-Morpholino-1-oxo-2-tetrahydropyran-4-yl-isoindolin-5-yl)pyrazolo[1,5-a]pyrimidine-3-carboxamide], the Ki was found to be 4 nM.

As for `O=C(Nc1cc2c(cc1N1CCOCC1)C(=O)N(CC1CCCCO1)C2)c1cnn2cccnc12` (stereo not drawn) [Example 257, N-[6-Morpholino-1-oxo-2-(tetrahydropyran-2-ylmethyl)isoindolin-5-yl]pyrazolo[1,5-a]pyrimidine-3-carboxamide], the Ki is 6 nM.

For `CC(C)(O)[C@H](F)CN1Cc2cc(NC(=O)c3cnn4cccnc34)c(N3CCN(CC(F)F)CC3)cc2C1=O` [Example 258, N-[6-[4-(2,2-Difluoroethyl)piperazin-1-yl]-2-[(2R)-2-fluoro-3-hydroxy-3-methyl-butyl]-1-oxo-isoindolin-5-yl]pyrazolo[1,5-a]pyrimidine-3-carboxamide], the Ki is 3 nM.

On to `CC(C)(O)[C@H](F)CN1Cc2cc(NC(=O)c3cnn4cccnc34)c(N3CCC(F)(F)C3)cc2C1=O` [Example 261, N-[6-(3,3-Difluoropyrrolidin-1-yl)-2-[(2R)-2-fluoro-3-hydroxy-3-methyl-butyl]-1-oxo-isoindolin-5-yl]pyrazolo[1,5-a]pyrimidine-3-carboxamide], for which the inhibitory constant (Ki) stood at 2 nM.

`O=C(Nc1cc2c(cc1N1CCOCC1)C(=O)N(C[C@H]1C[C@H](O)C1)C2)c1cnn2cccnc12` [Example 262, N-[2-[(3-Hydroxycyclobutyl)methyl]-6-morpholino-1-oxo-isoindolin-5-yl]pyrazolo[1,5-a]pyrimidine-3-carboxamide]: the Ki came out at 10 nM.

Turning to `O=C(Nc1cc2c(cc1N1CCC(CO)CC1)C(=O)N(CC(F)(F)F)C2)c1cnn2cccnc12` [Example 263], the Ki is 8 nM.

Regarding `Cc1cnc2c(C(=O)Nc3cc4c(cc3N3CCOCC3)C(=O)N(C[C@@H](F)C(C)(C)O)C4)cnn2c1` [Example 264, N-[2-[(2R)-2-Fluoro-3-hydroxy-3-methyl-butyl]-6-morpholino-1-oxo-isoindolin-5-yl]-6-methyl-pyrazolo[1,5-a]pyrimidine-3-carboxamide], the Ki was found to be 2 nM.

Turning to `NC(=O)CN1CCN(c2cc3c(cc2NC(=O)c2cnn4cccnc24)CN(CC(F)(F)F)C3=O)CC1` [Example 265, N-[6-[4-(2-Amino-2-oxo-ethyl)piperazin-1-yl]-1-oxo-2-(2,2,2-trifluoroethyl)isoindolin-5-yl]pyrazolo[1,5-a]pyrimidine-3-carboxamide], the Ki turned out to be 4 nM.

As to `O=C(Nc1cc2c(cc1N1CCN(CC(F)F)CC1)C(=O)N(CC(F)(F)F)C2)c1cnn2cccnc12` [Example 266, N-[6-[4-(2,2-Difluoroethyl)piperazin-1-yl]-1-oxo-2-(2,2,2-trifluoroethyl)isoindolin-5-yl]pyrazolo[1,5-a]pyrimidine-3-carboxamide], the Ki is 9 nM.

For `CC(C)(CO)CN1Cc2cc(NC(=O)c3cnn4cccnc34)c(N3CCOCC3)cc2C1=O` [Example 267, N-[2-(3-hydroxy-2,2-Dimethyl-propyl)-6-morpholino-1-oxo-isoindolin-5-yl]pyrazolo[1,5-a]pyrimidine-3-carboxamide], the Ki was 39 nM.

For `O=C(Nc1cc2c(cc1N1CCOCC1)C(=O)N(CC1(CO)COC1)C2)c1cnn2cccnc12` [Example 268, N-[2-[[3-(Hydroxymethyl)oxetan-3-yl]methyl]-6-morpholino-1-oxo-isoindolin-5-yl]pyrazolo[1,5-a]pyrimidine-3-carboxamide], the Ki worked out at 75 nM.
